PubChem BioAssay (NCI)
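GI50 marks 50% less growth. Definition used: TGI = concentration required for complete inhibition of growth.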

How the values were obtained:
Experiment in all cases: inhibition of tumour cell growth, NCI panel, 384-well format
[1] = system: 786-0 renal
[2] = system: A498 renal
[3] = system: A549 NSCLC
[4] = system: ACHN renal
[5] = system: BT-549 breast
[6] = system: CAKI-1 renal
[7] = system: CCRF-CEM leukemia
[8] = system: COLO 205 colon
[9] = system: DU-145 prostate
[10] = system: HCC-2998 colon
[11] = system: HCT-116 colon
[12] = system: HCT-15 colon
[13] = system: HL-60(TB) leukemia
[14] = system: HOP-62 NSCLC
[15] = system: HOP-92 NSCLC
[16] = system: HT29 colon
[17] = system: IGROV1 ovarian
[18] = system: K-562 leukemia
[19] = system: KM12 colon
[20] = system: LOX IMVI melanoma
[21] = system: M14 melanoma
[22] = system: MALME-3M melanoma
[23] = system: MCF7 breast
[24] = system: MDA-MB-231 breast
[25] = system: MDA-MB-435 melanoma
[26] = system: MDA-MB-468 breast
[27] = system: MOLT-4 leukemia
[28] = system: NCI-H226 lung
[29] = system: NCI-H23 lung
[30] = system: NCI-H322M lung
[31] = system: NCI-H460 NSCLC
[32] = system: NCI-H522 lung
[33] = system: NCI/ADR-RES ovarian
[34] = system: OVCAR-3 ovarian
[35] = system: OVCAR-4 ovarian
[36] = system: OVCAR-5 ovarian
[37] = system: OVCAR-8 ovarian
[38] = system: PC-3 prostate
[39] = system: RPMI-8226 leukemia
[40] = system: RXF 393 renal
[41] = system: SF-268 CNS
[42] = system: SF-295 CNS
[43] = system: SF-539 CNS
[44] = system: SK-MEL-2 melanoma
[45] = system: SK-MEL-28 melanoma
[46] = system: SK-MEL-5 melanoma
[47] = system: SK-OV-3 ovarian
[48] = system: SN12C renal
[49] = system: SNB-19 CNS
[50] = system: SR leukemia
[51] = system: SW-620 colon
[52] = system: T-47D breast
[53] = system: TK-10 renal
[54] = system: U251 glioblastoma
[55] = system: UACC-257 melanoma
[56] = system: UACC-62 melanoma
[57] = system: UO-31 renal

## Cn1cc(S(=O)(=O)N2CCC3=Cc4c(cnn4-c4ccc(F)cc4)C[C@]3(C(=O)c3cc(C(F)(F)F)ccn3)C2)cn1
[1]
  GI50: 66 µM
  TGI: > 100 µM
[2]
  GI50: 12.5 µM
  TGI: > 100 µM
[3]
  GI50: 8.76 µM
  TGI: > 100 µM
[4]
  GI50: 31.6 µM
  TGI: > 100 µM
[5]
  GI50: 6.96 µM
  TGI: 55.7 µM
[6]
  GI50: 25.6 µM
  TGI: > 100 µM
[7]
  GI50: 4.73 µM
  TGI: > 100 µM
[8]
  GI50: > 100 µM
  TGI: > 100 µM
[9]
  GI50: > 100 µM
  TGI: > 100 µM
[10]
  GI50: > 100 µM
  TGI: > 100 µM
[11]
  GI50: 3.29 µM
  TGI: > 100 µM
[12]
  GI50: > 100 µM
  TGI: > 100 µM
[13]
  GI50: 4.66 µM
  TGI: 12.9 µM
[14]
  GI50: 5.17 µM
  TGI: > 100 µM
[15]
  GI50: 11.8 µM
  TGI: > 100 µM
[16]
  GI50: > 100 µM
  TGI: > 100 µM
[17]
  GI50: 14.1 µM
  TGI: > 100 µM
[18]
  GI50: 3.27 µM
  TGI: > 100 µM
[19]
  GI50: 46.6 µM
  TGI: > 100 µM
[20]
  GI50: 49 µM
  TGI: > 100 µM
[21]
  GI50: > 100 µM
  TGI: > 100 µM
[22]
  GI50: 19.2 µM
  TGI: 71.1 µM
[23]
  GI50: 8.88 µM
  TGI: > 100 µM
[24]
  GI50: 53.3 µM
  TGI: > 100 µM
[25]
  GI50: > 100 µM
  TGI: > 100 µM
[26]
  GI50: 1.84 µM
  TGI: 6.55 µM
[27]
  GI50: 3.09 µM
  TGI: 9.44 µM
[28]
  GI50: 20.3 µM
  TGI: > 100 µM
[29]
  GI50: 1.34 µM
  TGI: 4.6 µM
[30]
  GI50: > 100 µM
  TGI: > 100 µM
[31]
  GI50: 3.12 µM
  TGI: > 100 µM
[32]
  GI50: 3.19 µM
  TGI: 81.2 µM
[33]
  GI50: 7.38 µM
  TGI: > 100 µM
[34]
  GI50: 9.32 µM
  TGI: > 100 µM
[35]
  GI50: 3.97 µM
  TGI: > 100 µM
[36]
  GI50: > 100 µM
  TGI: > 100 µM
[37]
  GI50: 46.8 µM
  TGI: > 100 µM
[38]
  GI50: 9.49 µM
  TGI: > 100 µM
[39]
  GI50: 0.831 µM
  TGI: 3.1 µM
[40]
  GI50: 1.98 µM
  TGI: 8.01 µM
[41]
  GI50: > 100 µM
  TGI: > 100 µM
[42]
  GI50: 11.5 µM
  TGI: > 100 µM
[43]
  GI50: 54.3 µM
  TGI: > 100 µM
[44]
  GI50: 42.8 µM
  TGI: > 100 µM
[45]
  GI50: > 100 µM
  TGI: > 100 µM
[46]
  GI50: 7.3 µM
  TGI: > 100 µM
[47]
  GI50: 5.8 µM
  TGI: > 100 µM
[48]
  GI50: > 100 µM
  TGI: > 100 µM
[49]
  GI50: > 100 µM
  TGI: > 100 µM
[50]
  GI50: 1.87 µM
  TGI: 3.82 µM
[51]
  GI50: > 100 µM
  TGI: > 100 µM
[52]
  GI50: 3.09 µM
  TGI: > 100 µM
[53]
  GI50: 78.8 µM
  TGI: > 100 µM
[54]
  GI50: 15.4 µM
  TGI: > 100 µM
[55]
  GI50: 7.32 µM
  TGI: > 100 µM
[56]
  GI50: 38.6 µM
  TGI: > 100 µM
[57]
  GI50: 11.8 µM
  TGI: > 100 µM
